# Laboratory results from paper PMC7932537, “Quantitative profiling of protease specificity” (PLoS Computational Biology, 2021).
# Assays:
# MMP-2 [1] = target: T1, MMP-2 (Homo sapiens, UniProt P08253); assay: K(obs) of individual phage substrates (set of 1369); type: biochemical; conditions: MMP2
# T1 sequence (P08253 110-660): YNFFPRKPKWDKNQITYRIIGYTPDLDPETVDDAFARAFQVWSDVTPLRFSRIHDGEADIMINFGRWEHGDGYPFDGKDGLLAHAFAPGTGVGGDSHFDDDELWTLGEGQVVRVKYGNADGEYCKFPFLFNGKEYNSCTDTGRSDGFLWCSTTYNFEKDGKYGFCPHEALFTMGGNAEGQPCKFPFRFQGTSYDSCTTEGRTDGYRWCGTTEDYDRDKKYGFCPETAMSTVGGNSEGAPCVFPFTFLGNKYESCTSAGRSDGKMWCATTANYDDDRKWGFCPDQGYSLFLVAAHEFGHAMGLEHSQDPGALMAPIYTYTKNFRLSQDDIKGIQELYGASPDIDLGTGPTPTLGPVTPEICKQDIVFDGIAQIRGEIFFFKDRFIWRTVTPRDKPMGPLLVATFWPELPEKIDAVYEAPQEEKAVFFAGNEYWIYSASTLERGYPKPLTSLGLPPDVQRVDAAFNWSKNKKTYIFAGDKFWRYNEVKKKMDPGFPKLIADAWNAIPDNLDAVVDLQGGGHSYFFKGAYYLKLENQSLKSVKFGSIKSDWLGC
# MMP-2 [2] = assay: Substrate phage display with NGS: relative probability (RP) of P3-P1' tetramer clusters; type: biochemical, human; conditions: MMP2;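 further: ratio of tetramer probability after protease selection to that in naive phage library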
# MMP-9 = MMP-9 (Homo sapiens, UniProt P14780); assay: K(obs) of individual phage substrates (set of 1369); type: biochemical; conditions: MMP9
# [3] = individual phage substrate of the set of 1369 peptides, cleavage position marked by '-'
# [4] = RP of the P3-P1' tetramer contained in the substrate
# [5] = individual phage substrate of the set of 1369 peptides, dash in the sequence marks the cleavage position
# [6] = individual phage substrates, set of 1369 peptides, cleavage position marked by hyphen in sequence
# [7] = RP of the P3-P1' tetramer contained in the substrate (substrate phage display with NGS)
# [8] = individual phage substrates, set of 1369 peptides, hyphen in sequence marks cleavage position
# Chain of MMP-9 (P14780 94-707): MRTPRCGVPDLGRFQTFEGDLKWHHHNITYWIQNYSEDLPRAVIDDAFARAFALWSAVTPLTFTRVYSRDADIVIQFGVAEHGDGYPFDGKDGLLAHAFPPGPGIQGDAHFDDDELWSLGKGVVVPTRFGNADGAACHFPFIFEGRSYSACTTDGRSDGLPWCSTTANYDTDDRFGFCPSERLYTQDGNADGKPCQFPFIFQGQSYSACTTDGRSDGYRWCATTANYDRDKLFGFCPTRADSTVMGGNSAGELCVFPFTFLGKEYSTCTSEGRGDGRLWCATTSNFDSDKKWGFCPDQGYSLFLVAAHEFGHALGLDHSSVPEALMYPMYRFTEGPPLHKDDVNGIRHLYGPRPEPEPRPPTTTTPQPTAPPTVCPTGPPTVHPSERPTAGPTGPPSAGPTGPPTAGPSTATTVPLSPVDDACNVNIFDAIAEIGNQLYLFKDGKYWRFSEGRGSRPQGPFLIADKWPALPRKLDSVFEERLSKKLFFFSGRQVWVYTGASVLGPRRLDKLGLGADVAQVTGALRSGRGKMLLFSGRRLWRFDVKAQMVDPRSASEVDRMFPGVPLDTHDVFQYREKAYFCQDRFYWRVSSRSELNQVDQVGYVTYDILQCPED
Substance,Kobs (MMP-2 [1]; [3]),relative probability (RP) (MMP-2 [2]; [4]),Kobs (MMP-9; [5]),Kobs (MMP-2 [1]; [6]),relative probability (RP) (MMP-2 [2]; [7]),Kobs (MMP-9; [8])
RIPAS-LTASG,12792.1 M⁻¹ s⁻¹,36.4285,12792.1 M⁻¹ s⁻¹,,,
GSGRA-MYGTT,1513.13 M⁻¹ s⁻¹,2.5449,2476.66 M⁻¹ s⁻¹,,,
SGPRF-IRLTA,1154.21 M⁻¹ s⁻¹,22.3274,2097.28 M⁻¹ s⁻¹,,,
HRQQN-LTASG,,,,912.511 M⁻¹ s⁻¹,4.247,0 M⁻¹ s⁻¹
GRPRG-LTTAS,12792.1 M⁻¹ s⁻¹,35.2511,12792.1 M⁻¹ s⁻¹,,,
GSGAA-LTMPT,,,,836.403 M⁻¹ s⁻¹,15.7207,84.609 M⁻¹ s⁻¹
GWPAG-LTTAS,12792.1 M⁻¹ s⁻¹,36.0156,12792.1 M⁻¹ s⁻¹,,,
SGVRW-YSNTA,874.197 M⁻¹ s⁻¹,17.3102,5667.28 M⁻¹ s⁻¹,,,
HRPRS-LTASG,12792.1 M⁻¹ s⁻¹,33.3704,12792.1 M⁻¹ s⁻¹,,,
ASTLH-LTASG,,,,0 M⁻¹ s⁻¹,2.471,56.119 M⁻¹ s⁻¹
VYWGN-MTASG,,,,4082.43 M⁻¹ s⁻¹,3.723,27.918 M⁻¹ s⁻¹
GQVDY-LMTAS,,,,0 M⁻¹ s⁻¹,1.426,0 M⁻¹ s⁻¹
GRVYD-LKTAS,,,,585.336 M⁻¹ s⁻¹,1.244,2761.81 M⁻¹ s⁻¹
KSPSL-YTASG,4335.13 M⁻¹ s⁻¹,18.1013,5090.5 M⁻¹ s⁻¹,,,
ERSLN-LTASG,726.013 M⁻¹ s⁻¹,3.302,1239.69 M⁻¹ s⁻¹,,,
RTAHN-LTASG,12792.1 M⁻¹ s⁻¹,23.7113,5667.28 M⁻¹ s⁻¹,,,
MSLGN-LTASG,,,,12792.1 M⁻¹ s⁻¹,33.3542,292.668 M⁻¹ s⁻¹
HYPLN-STASG,4335.13 M⁻¹ s⁻¹,18.9358,8321.48 M⁻¹ s⁻¹,,,
SGPSW-LYTTA,,,,9740.44 M⁻¹ s⁻¹,35.705,10866.7 M⁻¹ s⁻¹
SGSMR-LVLTA,,,,0 M⁻¹ s⁻¹,0,0 M⁻¹ s⁻¹
SGAHG-ILSTA,2996.69 M⁻¹ s⁻¹,8.881,3536.02 M⁻¹ s⁻¹,,,
GVYGA-LRTAS,12792.1 M⁻¹ s⁻¹,28.8499,142.481 M⁻¹ s⁻¹,,,
GNVRS-LITAS,12792.1 M⁻¹ s⁻¹,12.3051,2476.66 M⁻¹ s⁻¹,,,
KWVSM-LTASG,,,,12792.1 M⁻¹ s⁻¹,23.0821,1870.4 M⁻¹ s⁻¹
